Laboratory results taken from patent publication US20110112299A1, “TETRACYCLIC COMPOUND” (KYOWA HAKKO KIRIN CO., LTD., priority 2008, published 2011).

Biological target: T1, recombinant human progesterone receptor (Homo sapiens, UniProt P06401)
T1 construct: purchased Panvera/Invitrogen P2899 (kit P2895)
T1 sequence (P06401 675-933 limits assumed): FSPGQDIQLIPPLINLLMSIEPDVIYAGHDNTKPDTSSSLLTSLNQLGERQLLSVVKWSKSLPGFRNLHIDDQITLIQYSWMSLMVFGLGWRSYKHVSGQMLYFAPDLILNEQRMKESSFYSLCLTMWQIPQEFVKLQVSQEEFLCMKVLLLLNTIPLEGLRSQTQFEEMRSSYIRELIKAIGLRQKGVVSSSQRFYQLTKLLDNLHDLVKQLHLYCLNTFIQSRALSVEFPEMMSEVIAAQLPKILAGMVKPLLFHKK
Assay: Human progesterone receptor assay (fluorescence polarization, Test Example 2)
Type: binding
Conditions: at a concentration of 1000 nmol/L
Experimental: In this assay, a fluorescence polarization assay kit (Panvera/Invitrogen, product number: P2895) was used. The recombinant human progesterone receptor (product number: P2899), the Fluoromore (trademark)-labeled progesterone (PL Green, product number: P2897), and the basic buffer solution (product number: P2901) which were used in the assay kit had been stored at −80° C. until used. A buffer solution for the assay was prepared by adding 250 fold dilution of 1 mol/L DTT to the basic buffer solution to give a final concentration of 4 mmol/L.
The assay was performed as follows. The test compound was diluted to 2-fold of the desired concentration with the buffer solution for the assay, and 16 μL of that was added to each well. […] The fluorescence polarization value of each well was measured using a plate reader (PerkinElmer, Fusion or Envision). […] To a positive control group, mifepristone (RU-486) was added so as to give a final concentration of 1 μmol/L. The progesterone receptor binding rate (%) was calculated by the following formula.
Progesterone receptor binding rate (%)=100×[1−(fluorescence polarization value of test compound solution−fluorescence polarization value of positive control solution)/(fluorescence polarization value of negative control solution−fluorescence polarization value of positive control solution)]

CC/C(=C1\c2cc3cnn(C)c3cc2COc2ccccc21)c1cccc(NS(C)(=O)=O)c1 [Compound 2, (Z)-5-{1-[3-(methanesulfonamide)phenyl]propylidene}-1-methyl-5,11-dihydrobenzo[6,7]oxepino[4,3-f]indazole]
inhibitory activity (progesterone receptor binding rate): ≤ 10%
